Measurements reported in publication PMC4110683 (Chemistry and physics of lipids, 2013).
Converted amounts (≈) assume the structure as drawn. Like-named read-outs stand apart in the source and are kept apart here.

Experiments:
M. smegmatis mc^2 155 = details: ref Morbidoni et al., 2006; cited from earlier work
PfFabZ [1] = target: T1, PfFabZ (Plasmodium falciparum, UniProt Q965D7); details: with respect to the substrate; ref Tasdemir et al., 2010; cited from earlier work
T1 sequence (Q965D7 19-230): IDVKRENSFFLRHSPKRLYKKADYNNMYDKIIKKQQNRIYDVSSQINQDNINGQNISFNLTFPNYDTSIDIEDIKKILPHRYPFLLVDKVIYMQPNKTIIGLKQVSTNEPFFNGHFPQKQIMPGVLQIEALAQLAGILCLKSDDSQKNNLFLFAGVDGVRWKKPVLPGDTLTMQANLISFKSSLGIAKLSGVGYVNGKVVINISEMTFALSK

Escherichia coli = details: in words; ref Konthikamee et al., 1982; cited from earlier work
PfFabI [2] = target: T2, PfFabI (Plasmodium falciparum, UniProt Q9BH77); assay: Inhibition of PfFabI; type: biochemical
T2 sequence (Q9BH77 22-432): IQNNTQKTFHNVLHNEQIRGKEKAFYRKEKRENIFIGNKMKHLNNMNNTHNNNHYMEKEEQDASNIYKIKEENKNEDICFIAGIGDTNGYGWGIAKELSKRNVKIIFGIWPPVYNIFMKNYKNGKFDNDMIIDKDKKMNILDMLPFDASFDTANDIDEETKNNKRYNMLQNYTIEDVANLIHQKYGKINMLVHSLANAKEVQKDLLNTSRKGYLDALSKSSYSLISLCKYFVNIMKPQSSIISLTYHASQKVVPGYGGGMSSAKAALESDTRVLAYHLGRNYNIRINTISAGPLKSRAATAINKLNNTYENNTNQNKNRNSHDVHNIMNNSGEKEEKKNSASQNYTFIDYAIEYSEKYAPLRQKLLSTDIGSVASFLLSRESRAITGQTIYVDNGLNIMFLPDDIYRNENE

Neisseria flava = details: ref Konthikamee et al., 1982; cited from earlier work
[3] = tested on: InhA, the enoyl-ACP reductase; details: in words; ref Morbidoni et al., 2006; cited from earlier work
PfFabG = PfFabG (Plasmodium falciparum, UniProt Q8I2S7); assay: biochemical
hTopIB [4] = target: T3, hTopIB (Homo sapiens, UniProt P11387); assay: Inhibition of relaxation activity of hTopIB; type: biochemical
T3 sequence (P11387 1-765): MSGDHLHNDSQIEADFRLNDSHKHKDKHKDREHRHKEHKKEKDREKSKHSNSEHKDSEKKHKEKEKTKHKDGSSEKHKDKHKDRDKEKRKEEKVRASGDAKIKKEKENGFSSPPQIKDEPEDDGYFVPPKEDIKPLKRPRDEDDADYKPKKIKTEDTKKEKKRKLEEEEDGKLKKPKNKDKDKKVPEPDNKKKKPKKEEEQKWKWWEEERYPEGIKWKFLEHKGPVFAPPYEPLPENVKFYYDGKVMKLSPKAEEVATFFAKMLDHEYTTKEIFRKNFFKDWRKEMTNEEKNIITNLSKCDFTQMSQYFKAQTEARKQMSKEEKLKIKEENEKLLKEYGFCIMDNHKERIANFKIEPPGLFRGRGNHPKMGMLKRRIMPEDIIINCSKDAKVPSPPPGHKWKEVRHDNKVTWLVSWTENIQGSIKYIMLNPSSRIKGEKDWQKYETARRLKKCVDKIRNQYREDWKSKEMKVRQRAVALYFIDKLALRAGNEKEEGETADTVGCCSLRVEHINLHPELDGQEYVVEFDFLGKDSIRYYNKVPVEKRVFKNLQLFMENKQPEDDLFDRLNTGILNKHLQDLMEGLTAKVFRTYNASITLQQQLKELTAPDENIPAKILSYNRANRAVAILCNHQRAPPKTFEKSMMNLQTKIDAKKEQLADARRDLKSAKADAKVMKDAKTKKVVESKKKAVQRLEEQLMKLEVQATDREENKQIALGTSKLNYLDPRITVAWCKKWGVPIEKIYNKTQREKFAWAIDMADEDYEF

P. falciparum K1 [5] = assay: Toxicity to P. falciparum K1 strain; type: cell-based, Plasmodium falciparum; details: Plasmodium falciparum, K1, read-out: IC50 P. falciparum K1
PfFabI [6] = target: T2, PfFabI; details: with respect to crotonyl-CoA and the cofactor NADH; ref Tasdemir et al., 2010; cited from earlier work
Pseudomonas aeruginosa = details: in words; ref Konthikamee et al., 1982; cited from earlier work
[7] = tested on: hepatoma 7288 (HTC) cells; details: ref Upreti et al., 1981; cited from earlier work
[8] = tested on: BALB/c murine macrophages; details: read-out: Murine macrophages BALB/c IC50; ref Carballeira et al., 2012; cited from earlier work
LdTopIB = details: ref Carballeira et al., cited from earlier work
Staphylococcus aureus = details: ref Konthikamee et al., 1982; cited from earlier work
Bacteroides fragilis = details: ref Konthikamee et al., 1982; cited from earlier work
hTopIB [9] = target: T3, hTopIB; details: read-out: hTopIB EC50; relaxation activity; ref Carballeira et al., 2012; cited from earlier work
[10] = tested on: Mycobacterium tuberculosis H37Rv; details: ref Morbidoni et al., 2006; cited from earlier work
[11] = tested on: L. donovani promastigotes; details: cited from earlier work; for IC50: read-out: IC50 L. donovani promastigotes, 2012; for IC50 / EC50 L. donovani promastigotes / Effectiveness towards L. donovani: ref Carballeira et al.; for EC50 L. donovani promastigotes / Effectiveness towards L. donovani: 2009; for Motility of L. donovani promastigotes: at levels of 100 μg/mL, ref Cunningham et al., 1972; for Motility of L. donovani promastigotes / Effectiveness towards L. donovani: in words; for MIC L. donovani promastigotes: ref Chaudhuri et al., 1986
[12] = tested on: Leishmania infantum promastigotes; details: read-out: IC50 Leishmania infantum promastigotes; ref Carballeira et al., 2012; cited from earlier work
PfFabZ [13] = target: T1, PfFabZ; assay: Inhibition of PfFabZ; type: biochemical
[14] = tested on: FCR3 strain of P. falciparum; details: ref Krugliak et al., 1995; cited from earlier work
P. falciparum = details: in words; ref Kumaratilake et al., 1992; 1997; cited from earlier work
P. falciparum K1 [15] = details: ref Suksamrarn et al., 2005; cited from earlier work
[16] = read-out: LdTopIB EC50, relaxation activity, 2012

CCCCCCCCCCCCCCCCCCCC#CC(=O)O [2-Docosynoic acid]
MIC against M. smegmatis mc^2 155 (M. smegmatis mc^2 155): >300 µM

CCCCCCCCCC#CC(=O)O [2-Dodecynoic acid]
MIC against M. smegmatis mc^2 155 (M. smegmatis mc^2 155): >300 µM

CCCCCCCCCCCCCCCCCC#CC(=O)O [2-Eicosynoic acid]
MIC against M. smegmatis mc^2 155 (M. smegmatis mc^2 155): >300 µM

CCCCCCCCCCCCCC#CC(=O)O [2-HDA, 2-hexadecynoic acid]
Mode of inhibition of PfFabZ (PfFabZ [1]): competitively inhibit
Effectiveness against Escherichia coli (Escherichia coli): not effective
IC50 (PfFabI [2]; read-out: IC50 PfFabI, Carballeira and Tasdemir, unpublished data): 1.5 µM
MIC Neisseria flava (Neisseria flava): 21.4 µM (≈ 5.4 µg/mL)
Inhibition of InhA [3]: able to inhibit
IC50 (PfFabG; read-out: IC50 PfFabG, Carballeira and Tasdemir, unpublished data): 13.9 µM
IC50 (hTopIB [4]): 361 ± 1 µM
IC50 (P. falciparum K1 [5]): 41.2 µM
Mode of inhibition of PfFabI (PfFabI [6]): non-competitive
Effectiveness against Pseudomonas aeruginosa (Pseudomonas aeruginosa): not effective
LD50, growth of cultured hepatoma 7288 (HTC) cells [7]: 35 to 85 µM
IC50 [8]: > 100 µM
EC50 (LdTopIB; [16]): 28.7 ± 1.3 µM
MIC Staphylococcus aureus (Staphylococcus aureus): 21.4 µM (≈ 5.4 µg/mL)
MIC Bacteroides fragilis (Bacteroides fragilis): 21.4 µM (≈ 5.4 µg/mL)
EC50 (hTopIB [9]): > 100 µM
MIC against Mycobacterium tuberculosis H37Rv [10]: 20 to 25 µM
IC50 [11]: 17.8 µM
MIC against M. smegmatis mc^2 155 (M. smegmatis mc^2 155): 10 µM (≈ 2.52 µg/mL)
IC50 [12]: 14.9 µM

CCCCCCCCCCCCCCCCC#CC(=O)O [2-Nonadecynoic acid]
MIC against Mycobacterium tuberculosis H37Rv [10]: 20 to 25 µM
MIC against M. smegmatis mc^2 155 (M. smegmatis mc^2 155): 35 µM (≈ 10.3 µg/mL)

CCCCCCCCCCCC#CC(=O)O [2-TDA, 2-tetradecynoic acid]
IC50 (PfFabI [2]): 5.3 µM
IC50 (PfFabG): 24.5 µM
IC50 (P. falciparum K1 [5]): 122 µM
IC50 [8]: > 100 µM
EC50 (LdTopIB; [16]): 67.8 ± 1.1 µM
IC50 (PfFabZ [13]): 15.6 µM
EC50 (hTopIB [9]): > 100 µM
IC50 [11]: 24.7 µM
MIC against M. smegmatis mc^2 155 (M. smegmatis mc^2 155): 266 µM (≈ 59.7 µg/mL)

CCCCCCCCCCCCC#CCC(=O)O [3-Hexadecynoic acid]
MIC against M. smegmatis mc^2 155 (M. smegmatis mc^2 155): 20 µM (≈ 5.05 µg/mL)

CCCCCCCCCCCCCCC#CCC(=O)O [3-Octadecynoic acid]
MIC against M. smegmatis mc^2 155 (M. smegmatis mc^2 155): 36 µM (≈ 10.1 µg/mL)

CCCCCCCCCCCC#CCCC(=O)O [4-Hexadecynoic acid]
MIC against M. smegmatis mc^2 155 (M. smegmatis mc^2 155): 30 µM (≈ 7.57 µg/mL)

CCCCCCCCCCCCCC#CCCC(=O)O [4-Octadecynoic acid]
MIC against M. smegmatis mc^2 155 (M. smegmatis mc^2 155): >300 µM

CCCCCCCCCCC#CCCCC(=O)O [5-Hexadecynoic acid]
MIC against M. smegmatis mc^2 155 (M. smegmatis mc^2 155): 80 µM (≈ 20.2 µg/mL)

CCCCCCCCCCCCC#CCCCC(=O)O [5-Octadecynoic acid]
MIC against M. smegmatis mc^2 155 (M. smegmatis mc^2 155): 360 µM (≈ 101 µg/mL)

CCCCCCCCCCC#CCCCCC(=O)O [6-heptadecynoic, 6-heptadecynoic acid]
EC50 L. donovani promastigotes [11]: 1 to 6 µg/mL

CCCCCCCCCCCCCC#CCCCCC(=O)O [6-icosynoic acid]
EC50 (LdTopIB; read-out: EC50 LdTopIB, 2009): 36 to 49 µM
EC50 L. donovani promastigotes [11]: 1 to 6 µg/mL

CCCCCCCCCCCCCCCC(=O)O [16:0, hexadecanoic acid, reference compound]
IC50 (PfFabI [2]): > 100 µM
IC50 (PfFabG): > 100 µM
IC50 (P. falciparum K1 [5]): > 100 µM
IC50 (PfFabZ [13]): > 100 µM
Motility of L. donovani promastigotes [11]: inhibited the motility

CC[C@@]1(O)C(=O)OCc2c1cc1n(c2=O)Cc2cc3ccccc3nc2-1 [CPT, camptothecin, reference compound]
IC50 [8]: 0.62 ± 0.13 µM
EC50 (LdTopIB; [16]): 0.67 ± 0.08 µM

CCCCC/C=C\C/C=C\CCCCCCCC(=O)O [linoleic acid]
IC50 killing FCR3 strain of P. falciparum [14]: 76 µg/mL

CC/C=C\C/C=C\C/C=C\CCCCCCCC(=O)O [linolenic acid]
IC50 killing FCR3 strain of P. falciparum [14]: 92 µg/mL

CCCCCCCCCC(=O)O [n-decanoic acid]
Motility of L. donovani promastigotes [11]: inhibited the motility

CCCCCCCCCCCC(=O)O [n-dodecanoic acid]
Motility of L. donovani promastigotes [11]: inhibited the motility

CCCCCCCCCCCCCCCCCCCC(=O)O [n-eicosanoic acid, reference compound]
Effectiveness towards L. donovani [11]: not effective

CCCCCCCCCCCCCCCCC(=O)O [n-heptadecanoic acid, reference compound]
Effectiveness towards L. donovani [11]: not effective

CCCCCCCCCCCCCCCCCC(=O)O [octadecanoic acid]
MIC L. donovani promastigotes [11]: 1390 µM (≈ 395 µg/mL)

CCCCCCCC/C=C\CCCCCCCC(=O)O [oleic acid, 9-cis-Octadecenoic acid, reference compound]
IC50 killing FCR3 strain of P. falciparum [14]: 23 µg/mL
Parasite killing of P. falciparum (P. falciparum): negligible parasite killing
Motility of L. donovani promastigotes [11]: no effect
MIC L. donovani promastigotes [11]: 90 µM (≈ 25.4 µg/mL)

C=CCCC#CCCCCCCCCCCCC(=O)O [scleropyric acid]
IC50 K1 multidrug-resistant P. falciparum (P. falciparum K1 [15]): 7.2 µg/mL (≈ 25.9 µM)
